Experimental data published in PMC5773651, “Customised in vitro model to detect human metabolism-dependent idiosyncratic drug-induced liver injury” (Archives of Toxicology, 2017).
Read-outs that look alike come from different tables or passages of the source. Marks after values point to notes of the source that are not given here.

Tests used:
HepG2 cells [1] = details: human, 24 h
Description: (§1) For subculturing purposes, cells were detached by treatment with 0.25% trypsin/0.02% EDTA at 37 °C. For the adenovirus infection studies, cells were seeded in 96-well plates (5000 cells/well) and adenovirus-containing medium was added 48 h later. After 24 h, cells were transferred to the adenovirus-free medium and cultured for an additional 24-h period prior to the incubations performed with the test chemicals. To optimise the expression of the functional enzymes in the adenovirus-transduced HepG2 (Ad-HepG2) cells, different doses (MOI, multiplicity of infection, defined as plaque formation units per cell) of each adenovirus were tested.
(§2) The drugs included in the study were chosen based on previous information about their hepatotoxicity. Information on the potential mechanisms implicated in the toxicity of each compound and the major enzymes involved in their metabolism is summarised in Table 1. HepG2 or Ad-HepG2 (48 h post-infection) cells were exposed for 24 h to eight concentrations of the tested compounds. Each experimental condition was repeated independently three times (with three wells measured each time). The stock solutions of compounds were prepared in DMSO and were conveniently diluted in the culture medium to obtain the desired final concentrations. The final DMSO concentration in the culture medium was 0.5% (v/v), and the control cultures were treated with the same amount of solvent.
(§3) Following treatments, cells were simultaneously loaded with several fluorescent dyes to measure multiple biomarkers of cell toxicity. […] Information about the probes is summarised in Supplementary Table S2.
(§4) After incubating with dyes, cells were imaged by the Scan^R system (Olympus, Germany). Dyes were excited, and their fluorescence was monitored at the excitation and emission wavelengths at appropriate filter settings. The collected images were analysed using the Scan^R analysis module, which allows the simultaneous quantification of subcellular structures that are stained by different fluorescent probes.

HepG2 cells [2] = assay: Cell viability (PI), IC50, control HepG2 cells; type: cell-based; details: Homo sapiens; control non-transduced HepG2; 24 h; unit inferred, tested range in µM; read-out: IC50 (cell viability), C
[3] = system: HepG2 cells transduced with AdCYP2D6; assay: HCS hepatotoxicity assay (MEC, TR), AdCYP2D6-HepG2; type: cell-based, human; details: 24 h; for TR: TR = 100 x Cmax/lowest MEC; for MEC Apoptosis / MEC Calcium / MEC Lipids / MEC MMP / MEC Mitochondrial superoxide / MEC ROS: unit inferred, tested range in µM
Description: as §1, §2, §3, §4

[4] = cited from earlier work; for Bioactivation / Enzyme: major enzyme(s) involved in the bioactivation (denoted as *) or detoxification of the drug: previous information; for Toxicity (mechanisms of toxicity): ref Ashrafian et al. [2007], Donato et al. [2009], Fromenty and Pessayre [1997], Rolo et al. [2000], Tolosa et al. [2012b]; for DILI category: ref Gustafsson et al. ([2014])
[5] = system: HepG2 cells transduced with AdCYP2D6; assay: Cell viability (PI), IC50, AdCYP2D6-HepG2; type: cell-based; details: Homo sapiens, unit inferred, tested range in µM
Description: as §1, §2, §3, §4

[6] = system: HepG2 cells transduced with AdCYP1A2; assay: Cell viability (PI), IC50, AdCYP1A2-HepG2; type: cell-based; details: Homo sapiens, unit inferred, tested range in µM
Description: as §1, §2, §3, §4

[7] = system: HepG2 cells transduced with AdCYP3A4; assay: HCS hepatotoxicity assay (MEC, TR), AdCYP3A4-HepG2; type: cell-based, human; details: 24 h; for TR: TR = 100 x Cmax/lowest MEC; for MEC Apoptosis / MEC Calcium / MEC MMP / MEC Mitochondrial superoxide / MEC ROS: unit not given, tested range in µM
[8] = ref Atienzar et al. ([2014]), Garside et al. ([2014]), Tolosa et al. ([2012b]); cited from earlier work
[9] = system: HepG2 cells transduced with AdCYP3A4; assay: Cell viability (PI), IC50, AdCYP3A4-HepG2; type: cell-based; details: Homo sapiens, unit inferred, tested range in µM
Description: as §1, §2, §3, §4

[10] = system: HepG2 cells transduced with AdCYP2C19; assay: Cell viability (PI), IC50, AdCYP2C19-HepG2; type: cell-based; details: Homo sapiens, unit inferred, tested range in µM
Description: as §1, §2, §3, §4

[11] = system: HepG2 cells transduced with AdCYP2C19; assay: HCS hepatotoxicity assay (MEC, TR), AdCYP2C19-HepG2; type: cell-based, human; details: 24 h; for TR: TR = 100 x Cmax/lowest MEC; for MEC Apoptosis / MEC Calcium / MEC MMP / MEC Mitochondrial superoxide / MEC ROS: unit inferred, tested range in µM
Description: as §1, §2, §3, §4

[12] = system: HepG2 cells transduced with AdCYP1A2; assay: HCS hepatotoxicity assay (MEC, TR), AdCYP1A2-HepG2; type: cell-based, human; details: 24 h; for MEC Apoptosis / MEC Calcium / MEC MMP / MEC Mitochondrial superoxide / MEC ROS: unit inferred, tested range in µM; for TR: TR = 100 x Cmax/lowest MEC
Description: as §1, §2, §3, §4

## C1CCC(C(CC2CCCCN2)C2CCCCC2)CC1 (centres unmarked) [Perhexiline]
HepG2 cells [1]
  MEC Apoptosis: 15 µM
  MEC Calcium: 10
  MEC Lipids: 10
  MEC MMP: 22.5
  MEC Mitochondrial superoxide: 10
  MEC ROS: 25
  TR: 22
HepG2 cells [2]
  IC50: 22.5 µM
[3]; AdCYP 2D6 1x
  TR: 17.6
  MEC Apoptosis: 22.5 µM
  MEC Calcium: 12.5 µM
  MEC Lipids: > 27.5 µM
  MEC MMP: 22.5 µM
  MEC Mitochondrial superoxide: 22.5 µM
  MEC ROS: > 27.5 µM
[3]; AdCYP 2D6 4x
  TR: 17.6
  MEC Apoptosis: 25 µM
  MEC Calcium: 12.5 µM
  MEC Lipids: > 27.5 µM
  MEC MMP: 27.5 µM
  MEC Mitochondrial superoxide: 22.5 µM
  MEC ROS: > 27.5 µM
[3]; AdCYP 2D6 10x
  TR: 17.6
  MEC Apoptosis: 25 µM
  MEC Calcium: 12.5 µM
  MEC Lipids: > 27.5 µM
  MEC MMP: > 27.5 µM
  MEC Mitochondrial superoxide: 22.5 µM
  MEC ROS: > 27.5 µM
[4]
  Bioactivation: No
  Enzyme: major enzyme(s) involved in the bioactivation (denoted as *) or detoxification of the drug: CYP2D6
  Toxicity (mechanisms of toxicity): MI, ST
  DILI category: Severe
[5]; ADV CYP2D6 x1, 24 h, read-out: IC50 (cell viability), ADV dose x1
  IC50: 24.4 µM
[5]; ADV CYP2D6 x4, 24 h, read-out: IC50 (cell viability), ADV dose x4
  IC50: 25.5 µM
[5]; ADV CYP2D6 x10, 24 h, read-out: IC50 (cell viability), ADV dose x10
  IC50: 27.4 µM

## CC(C)C(=O)Nc1ccc([N+](=O)[O-])c(C(F)(F)F)c1 [Flutamide]
HepG2 cells [1]
  MEC Apoptosis: 500 µM
  MEC Calcium: 500
  MEC MMP: 500
  MEC Mitochondrial superoxide: 500
  MEC ROS: 500
  TR: 1.2
[6]; ADV CYP1A2 x1, 24 h, read-out: IC50 (cell viability), ADV dose x1
  IC50: 384 µM
[6]; ADV CYP1A2 x4, 24 h, read-out: IC50 (cell viability), ADV dose x4
  IC50: 261 µM
[6]; ADV CYP1A2 x10, 24 h, read-out: IC50 (cell viability), ADV dose x10
  IC50: 248 µM
[7]; AdCYP 3A4 1x
  TR: 2.5
  MEC Apoptosis: 500
  MEC Calcium: 250
  MEC MMP: 750
  MEC Mitochondrial superoxide: 500
  MEC ROS: 250
[7]; AdCYP 3A4 4x
  TR: 5.0
  MEC Apoptosis: 250
  MEC Calcium: 250
  MEC MMP: 500
  MEC Mitochondrial superoxide: 250
  MEC ROS: 125
[7]; AdCYP 3A4 10x
  TR: 5.0
  MEC Apoptosis: 125
  MEC Calcium: 250
  MEC MMP: 250
  MEC Mitochondrial superoxide: 125
  MEC ROS: 125
HepG2 cells [2]
  IC50: 398 µM
[4]
  Bioactivation: Yes
  Enzyme: major enzyme(s) involved in the bioactivation (denoted as *) or detoxification of the drug: CYP1A2*, CYP2C19*, CYP3A4*
  Toxicity (mechanisms of toxicity): MI, OS
  DILI category: Severe
[8]
  Cmax: 6.2 µM
[9]; ADV CYP3A4 x1, 24 h, read-out: IC50 (cell viability), ADV dose x1
  IC50: 219 µM
[9]; ADV CYP3A4 x4, 24 h, read-out: IC50 (cell viability), ADV dose x4
  IC50: 176 µM
[9]; ADV CYP3A4 x10, 24 h, read-out: IC50 (cell viability), ADV dose x10
  IC50: 145 µM
[10]; ADV CYP2C19 x1, 24 h, read-out: IC50 (cell viability), ADV dose x1
  IC50: 344 µM
[10]; ADV CYP2C19 x4, 24 h, read-out: IC50 (cell viability), ADV dose x4
  IC50: 309 µM
[10]; ADV CYP2C19 x10, 24 h, read-out: IC50 (cell viability), ADV dose x10
  IC50: 255 µM
[11]; AdCYP 2C19 1x
  TR: 2.5
  MEC Apoptosis: 250 µM
  MEC Calcium: 250 µM
  MEC MMP: 250 µM
  MEC Mitochondrial superoxide: 250 µM
  MEC ROS: 250 µM
[11]; AdCYP 2C19 4x
  TR: 6.2
  MEC Apoptosis: 250 µM
  MEC Calcium: 100 µM
  MEC MMP: 250 µM
  MEC Mitochondrial superoxide: 250 µM
  MEC ROS: 250 µM
[11]; AdCYP 2C19 10x
  TR: 12.4
  MEC Apoptosis: 100 µM
  MEC Calcium: 75 µM
  MEC MMP: 250 µM
  MEC Mitochondrial superoxide: 50 µM
  MEC ROS: 50 µM
[12]; AdCYP 1A2 1x
  MEC Apoptosis: 250 µM
  MEC Calcium: 500 µM
  MEC MMP: 500 µM
  MEC Mitochondrial superoxide: 75 µM
  MEC ROS: 500 µM
[12]; AdCYP 1A2 4x
  TR: 12.4
  MEC Apoptosis: 250 µM
  MEC Calcium: 500 µM
  MEC MMP: 500 µM
  MEC Mitochondrial superoxide: 50 µM
  MEC ROS: 500 µM
[12]; AdCYP 1A2 10x
  TR: 12.4
  MEC Apoptosis: 125 µM
  MEC Calcium: 50 µM
  MEC MMP: 500 µM
  MEC Mitochondrial superoxide: 50 µM
  MEC ROS: 250 µM
